Measured values published in EP4796536A1, “CRYSTAL FORMS OF COMPOUND HAVING FUSED FIVE- AND SIX-MEMBERED RINGS, PREPARATION METHOD THEREFOR, AND USE THEREOF” (Hangzhou Polymed Biopharmaceuticals, Inc., priority 2023, dated 2025).

Legend:
IRAK4 kinase = molecular target: T1, IRAK4 kinase (Homo sapiens, UniProt Q9NWZ3); assay: Inhibition of IRAK4 kinase activity, fluorescence microfluidic mobility assay; format: biochemical; conditions: IRAK4 6 nM, ATP 10 µM, substrate peptide FAM-P8 3 µM
T1 construct: purchased Carna 09-145
T1 sequence (Q9NWZ3 1-460): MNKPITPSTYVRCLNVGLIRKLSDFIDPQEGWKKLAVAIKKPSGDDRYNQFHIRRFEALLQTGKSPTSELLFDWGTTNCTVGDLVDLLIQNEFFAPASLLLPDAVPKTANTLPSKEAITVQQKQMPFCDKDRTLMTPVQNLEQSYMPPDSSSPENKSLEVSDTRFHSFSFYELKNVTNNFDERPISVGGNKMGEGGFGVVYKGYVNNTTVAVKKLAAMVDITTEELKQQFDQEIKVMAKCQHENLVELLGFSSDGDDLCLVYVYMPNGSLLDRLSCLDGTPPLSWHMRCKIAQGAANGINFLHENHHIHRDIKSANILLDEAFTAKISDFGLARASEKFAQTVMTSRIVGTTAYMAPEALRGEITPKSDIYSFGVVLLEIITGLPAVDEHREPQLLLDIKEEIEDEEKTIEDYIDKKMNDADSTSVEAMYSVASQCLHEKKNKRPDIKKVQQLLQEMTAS
Protocol: Based on the experimental method of fluorescence microfluidic mobility assay, the IC50 value of competitive binding of IRAK4 kinase to ATP by the compound was determined. The initial detection concentration of the compound was 10 µM, which was 4-fold serially diluted to […] and assayed in duplicate. In this case, commercially available staurosporine was the standard control for the assay.
• 1) IRAK4 kinase was dissolved in kinase buffer (50 mM HEPES pH 7.5, 10 mM MgCl2, 2 mM DTT, and 0.01% Brij-35) at a final concentration of 6 nM. • 2) The substrate peptide FAM-P8 and ATP were dissolved in the above kinase buffer, and the final concentrations of the substrate peptide FAM-P8 and ATP for IRAK4 were 3 µM and 10 µM, respectively. • 3) Dilution of compound: the compound was first diluted to 50 µM, and then 4-fold serially diluted with DMSO. […] After incubation at 28°C for 1 hour, 25 µL of stop solution (100 mM HEPES pH 7.5, 50 mM EDTA, 0.2% Coating Reagent #3, and 0.015% Brij-35) was added to each well to terminate the reaction. • 5) Data reading: CaliperEZ Reader II instrument was used to read the conversion rate data. […]

[1] = molecular target: T2, IRAK4 protein in THP-1 cells (Homo sapiens, UniProt Q9NWZ3); assay: IRAK4 protein degradation in THP-1 cells by Western Blot; format: cell-based; conditions: 24 hours after administration
T2 construct: endogenous in cells; host or cells: THP-1
T2 sequence (Q9NWZ3 1-460): T1 sequence (Q9NWZ3 1-460)
Protocol: 2.2.2.1 Based on the experimental method of immunoblot, i.e., Western Blot, THP-1 cell samples processed by gel electrophoresis were stained with specific antibodies, and the degrading activity of the compound on the IRAK4 protein in THP-1 cells was determined by analyzing the position and depth of staining. The detection concentrations of the compound were 0 µM, 0.3 µM, 1 µM, and 3 µM, and the compound was used to treat the cells for 8 hours, 16 hours, 24 hours, and 48 hours. In this case, glyceraldehyde-3-phosphate dehydrogenase (GAPDH) was the internal reference protein for the assay.
• Running buffer: 50 mL of MOPS SDS Running Buffer (20X) and 50 mL of 20× TBS Tween-20 buffer were diluted to 1L with deionized water as running buffer; • 5% skim milk (w/v): 5% skim milk was prepared by diluting 2.5 g of skim milk with 50 mL of 1× TBS Tween-20 buffer; • 5% BSA (w/v): 5% BSA was prepared by diluting 2.5 g of BSA with 50 mL of 1× TBS Tween-20 buffer; • Anti-IRAK4 antibody was diluted at 1:1000 with 5% BSA into a primary antibody working solution; • Goat Anti-Rabbit IgG H&L (HRP) was diluted at 1:2000 with 5% BSA into a secondary antibody working solution; • Goat Anti-Mouse IgG H&L (HRP) was diluted at 1:2000 with 5% BSA into a secondary antibody working solution. […]

## COc1cc2nn(C3CC4(CCN(C(=O)C5CCN(c6ccc7c(c6)C(=O)N(C6CCC(=O)NC6=O)C7=O)CC5)CC4)C3)cc2cc1NC(=O)c1cccc(C(F)(F)F)n1 (centres unmarked) [X]
IRAK4 kinase
  IC50: 26 nM
[1]
  DC50: 4.02 nM
